Data: a melting point compilation (Tetko et al.)

SMILES | melting point [°C]
Cc1c(C(=O)O)cc(-c2ccccc2)n1CCCN1CCOCC1 | 172 to 177
CC(C)(Sc1cc(C(C)(C)C)c(O)c(C(C)(C)C)c1)Sc1cc(C(C)(C)C)c(O)c(C(C)(C)C)c1 | 125
CCCCCCCCCCCCCCCCCl | 17.9
COC(=O)c1c(Cl)nn(C)c1S(=O)(=O)NC(=O)Nc1nc(OC)cc(OC)n1 | 176
NS(=O)(=O)c1cnccc1Cl | 150 to 155
COc1c(C)cc(C(=O)O)cc1C | 190 to 194
Nc1ccc2c3c(cccc13)-c1ccccc1-2 | 116
Cc1cc(I)cnc1NC(=O)C(C)(C)C | 143
FC1(F)C(F)(F)C(F)(F)C2(F)C(F)(F)C(F)(F)C(F)(F)C(F)(F)C2(F)C1(F)F (stereo unspecified) | -10
Cc1cc(Br)cc(Br)c1N | 44 to 49
COC(=O)c1c(OC)c(OC)c(C(=O)OC)c(C(=O)OC)c1OC | 52 to 55
N#CC1=C(N)n2nc(C(F)(F)F)nc2NC1c1c(Cl)cccc1Cl (stereo unspecified) | 323
Nc1nc(O)cc(Cl)n1 | 262
CC1(C)OC(=O)C(=C2CCCCCN2)C(=O)O1 | 147 to 149
Cc1cc([N+](=O)[O-])ccc1O | 96
N#CC(Br)c1ccccc1 (stereo unspecified) | 29
CCCCOCCCN | -65
Cn1c(N)c(N=O)c(=O)[nH]c1=O | 300
O=C(O)C=CCCCCCCCCC(=O)O | 166
CCCCCCCCCCCI | 2

SMILES | melting point [°C]
CC(O)C1CCC2C3CCC4CC(O)CCC4(C)C3CCC12C (stereo unspecified) | 245
Cc1oc(S(=O)(=O)N2CCCCC2)cc1C(=O)O | 194 to 195
CCN(Cc1ccc(Cl)nc1)C(=C[N+](=O)[O-])NC | 83.5
CCOC(=O)c1cnc2sc(C(F)(F)F)nn2c1=N | 198
O=[N+]([O-])c1c(Cl)cc(Cl)cc1C(Cl)Cl | 45
CC(=O)OCC(=O)[C@@]1(O)CC[C@H]2[C@@H]3CCC4=CC(=O)C=C[C@]4(C)[C@H]3[C@@H](O)C[C@@]21C | 238
CN(C)C=C[N+](=O)[O-] | 103 to 105
CC(C)(C)OC(=O)N[C@@H]1CC[C@H](C(=O)O)C1 | 112
CC(=O)OOC(=O)c1ccccc1 | 37
CC(=O)C(Cl)C(C)=O | -15
O=Cc1ccc(N2CCOCC2)nc1 | 88 to 89
CCCCN1CCOCC1 | -57.1
CC(C)(OO)c1ccccc1 | -9
CNC(=O)Oc1cc(C)c(SC)c(C)c1 | 120
CC(=O)N1CCCCC1 | -13.4
O=[N+]([O-])c1cccnc1NC1CC1 | 61 to 63
CC(C)(C)C1CCCCC1O (stereo unspecified) | 45
Clc1ccc2c(c1)Oc1c(Cl)c(Cl)c(Cl)c(Cl)c1O2 | 195
Cc1nc([N+](=O)[O-])cn1CCC#N | 115
Clc1ncnc2[nH]cnc12 | 300

SMILES | melting point [°C]
O=c1cnn(C2OC(CO)C(O)C2O)c(=O)[nH]1 (stereo unspecified) | 158
Cc1ccncc1C#N | 43
CCN(CC)c1nc(Cl)nc(N(CC)CC)n1 | 27
O=C(NCC1CCCCN1)c1cc(OCC(F)(F)F)ccc1OCC(F)(F)F (stereo unspecified) | 146
C=CCCCCCCCCC=O | 7
CNC(C)=CC(=O)OC | 62 to 68
O=C1CC(=O)NCCNCCNCCNC(=O)CC(=O)NCCNCCNCCN1 | 199 to 202
CNC(=S)C#N | 37 to 46
Brc1ccc(Br)nn1 | 116 to 117
Clc1cncc(Br)c1 | 80
C[C@]12CCC(=O)C(Br)[C@H]1CC[C@@H]1[C@@H]2CC[C@]2(C)C(O)CC[C@@H]12 (stereo partly specified) | 143
CCCC(=O)CCC | -33
Nc1nccnn1 | 176
Nc1nc(-c2ccc(Br)s2)cs1 | 170
FC(F)OC(F)F | -123
Clc1cc(Cl)c2cc(Cl)cc(Cl)c2c1 | 180
CC1(C)CC(=O)C=C(C(=O)O)O1 | 167 to 171
CCOC(=O)C1=C(CBr)NC(=O)NC1C (stereo unspecified) | 148

Further lines, results first:

melting point [°C] | SMILES
110 | N#Cc1c(NC(=O)c2ccccc2)sc2c1CCCC2
155 | Oc1ccccc1C=Nn1c(S)nnc1C(F)(F)F
79 to 81 | Cc1noc(-c2ccccc2)c1N=C=O
179 to 180 | O=Cc1cc(C=O)c(O)c(C=O)c1
48 to 52 | OC(CCl)c1ccc(Cl)cc1Cl (stereo unspecified)
208 | O=C(O)c1ccc(N2C(=O)C3ON=C(C(=O)c4cccs4)C3C2=O)cc1 (stereo unspecified)
114 to 116 | O=C1c2ccccc2OC(CCCl)N1O (stereo unspecified)
203 | COc1cc2ccc(N(C)S(=O)(=O)c3ccc(C)cc3)cc2[nH]1
122 | O=[N+]([O-])c1ccc(O)cc1O
71 | COc1ccc(C(=O)Cl)cc1OC
131 to 132 | CCOC(=O)c1c(-c2ccccc2)csc1NC(=O)c1ccccc1Cl
162 | CC(=O)n1cc(C=O)c2ccccc21
171 to 173 | Cc1cc(C(=O)O)c(C)n1Cc1ccncc1
223 | CC1(C)OC(=O)C(=NNc2ccc(C(=O)O)cc2)C(=O)O1
184 | O=C(C1=NOC2C(=O)N(c3ccc(Br)cc3)C(=O)C12)c1ccc(Cl)cc1 (stereo unspecified)
200 to 204 | Nc1nc2ccccc2n1Cc1ccccc1
116 to 119 | CCCc1c(C(=O)O)cnn1-c1ccc(Cl)cc1
103 to 105 | ON=C1CCCc2ccccc21
242 | Cc1cc(O)c(C)cc1N
51 | Cc1ccc(Oc2ccc(C)cc2)cc1
170 | Cc1ccc(C(=O)c2noc(-c3ccc([N+](=O)[O-])cc3)c2S(=O)(=O)c2ccccc2)cc1
148 | c1cnc2nc[nH]c2c1
102 | COC(=O)c1ccc(I)c([N+](=O)[O-])c1
98 | CC1=CC=CC2Cc3ccccc3C(=O)N12 (stereo unspecified)
139 to 142 | CNc1ccc(C#N)cc1N

melting point [°C] | SMILES
158 | O=c1cc(-c2ccccc2)oc2cccc(O)c12
192 | Cc1ccc(S(=O)(=O)NC(=O)NC2C3CCC(C)(C2O)C3(C)C)cc1 (stereo unspecified)
135 to 136 | NC(=S)c1ccc(Cl)cc1Cl
113 | Cc1cccc2c(O)c(C=C3C(=O)N(c4ccccc4)N=C3c3ccccc3)c(=O)[nH]c12
104 | CCc1ccccc1NCN1C(=O)c2ccccc2C1=O
96 to 98 | COC(=O)CSc1cc(C(F)(F)F)nc2ccccc12
64 | CC12C=C(C(=O)Oc3ccccc3)C(CC1)C2(C)C (stereo unspecified)
116 | N#Cc1ccc2c(c1)N(CCCN1CCC(O)CC1)c1ccccc1S2
55 to 59 | O=C(CCCc1ccccc1)c1ccccc1
147 | O=C(N[C@H](Cc1ccc(Cl)cc1)C(=O)O)OCC1c2ccccc2-c2ccccc21
104 | CC(=O)NC(=O)COC(=O)c1ccccc1
67 to 69 | CNCc1ccc(-n2ccnc2)cc1
63 | CCc1cc(C#N)ccc1N
-13.5 | Cc1ccccc1C#N
31.5 | Cc1ccc(C(=O)CCCCl)cc1
112 to 114 | Clc1cncc(Oc2ccc(Cl)nn2)c1
192 | CC(=O)NC(=Cc1ccccc1)C(=O)O
64 | N#CCc1csc2ccccc12
165 | O=C(NC(=S)Nc1ccc(Cl)cc1)c1ccc(-c2ccccc2)cc1
139 to 141 | Cc1n[nH]c(C)c1Oc1ccc(Cl)cc1
164 | CC(C)(C)NCC(O)COc1ccccc1C#N (stereo unspecified)
167 | CCOC(=O)c1cc2c(=O)oc3ccccc3c2nc1C
54 | O=S(=O)(CCl)c1ccccc1
217 | NC(=O)NN=Cc1ccc([N+](=O)[O-])cc1
78 | CC(=O)Nc1ccccc1F

melting point [°C] | SMILES
140 | Cc1ccc(N=Nc2cc(C(C)C)c(N=Nc3ccc(C)cc3)cc2C)cc1
114 | Cn1ccsc1=NC(=O)c1ccccc1
18 | N#Cc1ccccc1C(F)(F)F
115 | O=C(C=Cc1ccc(OC(=O)c2ccco2)cc1)c1ccccc1
177 | CC(=O)c1ccc(NC(=O)c2ccccc2)c(C(=O)c2ccccc2)c1
143 | CCCCCCCCC(NC(=O)OCC1c2ccccc2-c2ccccc21)C(=O)O (stereo unspecified)
155 | O=C(O)c1cccc(S(=O)(=O)Oc2ccc3ccccc3c2)c1
130 | CC(=O)c1ccc2c(c1)Cc1ccccc1-2
179 to 180 | CC12CCC3C(CCC4CC(OC=O)CCC43C)C1CC=C2C#Cc1ccccc1 (stereo unspecified)
131 | CCCCNC(=O)NS(=O)(=O)c1ccccc1
43 to 46 | CCCCCCCCCC1(C)N=C(c2ccccc2)C=[N+]1[O-] (stereo unspecified)
71 | O=[N+]([O-])c1ncccc1O
147 | Oc1ccccc1/C=C/c1ccccc1
85 to 87 | O=C(Cl)c1csc(-c2cccc(Cl)c2)n1
109 | CN(C(=S)C(=O)c1ccccc1)c1ccccc1
213 to 216 | NNC(=O)CSc1ccnc2cc(Cl)ccc12
83 | Cc1ccc(O)c(C(O)Cc2ccccc2)c1 (stereo unspecified)
97 | CN1CCCN(c2ccc(CO)cc2)CC1
101 | CC(=O)c1ccc(C#Cc2ccccc2)cc1
115 | O=Cc1cccc2cnccc12
154 | CC1(C)C(=O)Nc2ccccc21
136 to 139 | CC(C)(C)OC(=O)N[C@@H](CO)c1ccccc1
123 to 124 | CC(C)(Oc1ccc2ccccc2c1)C(=O)O
